# Data as given in patent publication US6884589B2, “Model for myeloid cell growth, differentiation and disease” (Regents of the University of California, priority 2000, dated 2005).
# What was measured:
# Type in all cases: cell-based, murine
# Settings in all cases: 10 μM atRA for 4 days
# [1] = test system: PLZF/RARα ECoM-G derivatives; experiment: atRA treatment of ECoM-G clones arrested in differentiation by PLZF/RARα
# Experimental: (§1) Retroviral infection of ECoM-G cells with heterologous oncoproteins. Helper-free retrovirus was generated for wild-type E2a-Pbx1, Hoxa7, Hoxa9, Nup98/HoxA9, Hoxb8, AML1/ETO, PML/RARα and PLZF/RARα constructs cloned into the multiple cloning site of the MSCVneo and MSCVpac retroviral vectors. ECoM-G cells (250,000) from 3 different clones were transduced by spinoculation (as described above) and selected 5 days in G418 (1 mg/ml) or puromycin (1 μg/ml). The cells were washed and plated in media without estrogen. Only those cells that were capable of continued and indefinite proliferation in the absence of estrogen were expanded to generate RNA for Northern analysis.
# Analysis of differentiation arrest induced by heterologous oncoproteins in E2a-Pbx1-ER expressing cells. The ECoM cells provide a system in which to dissect the mechanisms of action of oncogenes. Heterologous oncoproteins were introduced into ECoM-G clones by retroviral infection.
# parental ECoM-G cells = experiment: atRA treatment of parental ECoM-G cells
# [2] = test system: PML/RARα ECoM-G derivatives; experiment: atRA treatment of ECoM-G clones arrested in differentiation by PML/RARα
# Experimental: as §1
# Analysis of differentiation arrest induced by heterologous oncoproteins in E2a-Pbx1-ER expressing cells. The ECoM cells provide a system in which to dissect the mechanisms of action of oncogenes. Heterologous oncoproteins were introduced into ECoM-G clones by retroviral infection. Expression was verified by immunoblot assay and cells were assayed for the ability to re-establish differentiation arrest following estrogen withdrawal. AML1/ETO, PML/RARα, Hoxa9, Hoxb8 and wild type E2a-Pbx1 prevented granulocytic differentiation of specific clones permitting their continued and indefinite proliferation in the presence of GM-CSF. […]
smiles,measurement,setting,value
"CC1=C(/C=C/C(C)=C/C=C/C(C)=C/C(=O)O)C(C)(C)CCC1 [atRA, all-trans-RA]","response to atRA (proliferation, differentiation)",[1],stopped proliferating and underwent quantitative granulocytic differentiation
same,response to atRA,parental ECoM-G cells,completely unresponsive
same,"response to atRA (proliferation, differentiation)",[2],stopped proliferating and underwent quantitative granulocytic differentiation
